Tested on: 616215-338-R-J1-PDC complex spheroid viability
Experiment: Anticancer human tumor 616215-338-R-J1-PDC patient-derived colon adenocarcinoma cell line growth inhibition [RAS]
Settings: for IC50: curve of first compound; for viability, T/C: stronger effect = lower value; active means viability on the fitted dose curve at most 10% of control; inactive means the rest
Text: RAS pathway inhibitors in Combinations in Complex Spheroids
A high-throughput screen of multi-cell type tumor spheroids was designed to identify active combinations of RAS pathway inhibitors and targeted small molecules. Complex spheroids include a stromal component modeled by human endothelial cells (HUVEC) and fibroblasts modeled by human mesenchymal stem cells (MSCs). The concentration ranges selected for each drug and investigational agent were based upon clinically achievable concentrations if the clinical Cmax of the agent was known.
Compounds. The drugs and investigational agents: abemaciclib (NSC768073), cobimetinib (NSC768068), divarasib (GDC6063, NSC841802), docetaxel (NSC628503), GDC-1971 (RLY-1971, NSC841576), gemcitabine (NSC613327), inavolisib (NSC800729), ipatasertib (NSC767898), KB-0742 (NSC834161), MRTX-1133 (NSC836407), osimertinib (NSC779217), RMC-4630 (NSC839698), RMC-6236 (NSC851965), RMC-6291 (NSC852671), Ro-3306 (NSC812927), sapanisertib (NSC764658), SN-38 (NSC673596), staurosporine (NSC755774), SY5609 (NSC837396), and tovorafenib (DAY101, NSC766906), were obtained from the National Cancer Institute (NCI) Developmental Therapeutics Program Chemical Repository. The FDA-approved anticancer drug set is available from the NCI Developmental Therapeutics Program. […] The stock solutions were prepared in dimethyl sulfoxide (DMSO, Sigma-Aldrich, St. Louis, MO, cat. D2650) at 800-fold the tested concentration and stored at -70 degrees C prior to their use. All drugs and investigational agents were tested over a range starting from a high concentration at or near the clinical Cmax and decreasing in half-log increments. If the clinical Cmax for an agent had not been determined, the highest concentration tested was 10 microM.
Cell Culture. All cells were maintained in an incubator at 37 degrees C and 5% CO2 with 95% humidity. The PDC lines were cultured according to standard operating procedures established by the NCI PDMR. All PDCs were thawed and cultured in Matrigel-coated flasks prepared with a working solution of 1X Ham's F-12 nutrient mix, without supplementation (Invitrogen, Waltham, MA, cat. 11765054), 100 U/mL penicillin-streptomycin (Invitrogen, cat. 15140122), and 2.5% Matrigel (Corning Inc., Corning, NY, cat. 354248) for the first three passages. The 362531-283-R-J2-PDC and 782815-120-R-J1-PDC lines were cultured in 6C/Colon 1B media, which includes advanced DMEM/F-12 (Thermo Fisher Scientific, cat. 12634028), 10 mM HEPES (Thermo Fisher Scientific, cat. 15630080), 1X GlutaMAX supplement (Thermo Fisher Scientific, cat. 35050061), 0.1 mg/mL primocin (InvivoGen, San Diego, CA, cat. ant-pm-2), 10% defined fetal bovine serum, heat inactivated (HyClone Laboratories Inc., Logan, UT, cat. SH30070.03HI), 50% L-WRN conditioned media (ATCC, cat. CRL-3276), 1.25 mM N-Acetyl-L-cysteine (Sigma-Aldrich, cat. A9165), 10 mM nicotinamide (Sigma-Aldrich, cat. N0636), 1X B-27 supplement (Thermo Fisher Scientific, cat. 17504044), 1X N-2 supplement (Thermo Fisher Scientific, cat. 17502048), 50 ng/mL human EGF (Thermo Fisher Scientific, cat. PHG0311), and 10 microM Y-27632 dihydrochloride (Tocris Bioscience, cat. 1254). The K12877-001-R-J1-PDC line was cultured in 6I media, which includes all 6C/Colon 1B media plus 10 ng/mL human FGF-10 (PeproTech, cat. 100-26), 1 ng/mL human FGF-2 (PeproTech, cat. 100-18B), 1 µM prostaglandin E2 (Tocris Bioscience, cat. 2296), […] hydrocortisone (Sigma-Aldrich, cat. H4001), and […] bovine insulin (Sigma-Aldrich, cat. I6634). The K86415-001-R-J1-PDC line was cultured in 6D media, which includes all 6C/Colon 1B media components minus the L-WRN conditioned media. The 485176-168-R4-J1-PDC was cultured in PANC media, which includes all 6C/Colon 1B media plus 100 ng/mL human FGF-10 (PeproTech, cat. 100-26), 500 nM SB-431542 (Selleckchem, cat. S1067), and 10 nM gastrin (Tocris Bioscience, cat. 3006). […]
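Further: spheroids exposed to agents for seven days before viability readout.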

C=CC(=O)Nc1cc(Nc2nccc(-c3cn(C)c4ccccc34)n2)c(OC)cc1N(C)CCN(C)C + CCn1c(-c2cccnc2C(C)OC)c2c3cc(ccc31)N1CCOC(CC(NC(=O)C(C(C)C)N(C)C(=O)C3(F)CCN(C(=O)C#CC(C)(C)N(C)C)CC3)C(=O)N3CCCC(N3)C(=O)OCC(C)(C)C2)C1
> 1 µM: IC50 (second compound 0.000949 µM) | IC50 (second compound 0.003 µM) | IC50 (second compound 0.00949 µM) | IC50 (second compound 0.03 µM) | IC50 (second compound 0.0949 µM) | IC50 (second compound 0.3 µM)
inactive: viability, T/C (second compound 0.000949 µM, first compound 0.00316 µM) 98.4% | viability, T/C (second compound 0.000949 µM, first compound 0.01 µM) 105% | viability, T/C (second compound 0.000949 µM, first compound 0.0316 µM) 116% | viability, T/C (second compound 0.000949 µM, first compound 0.1 µM) 103% | viability, T/C (second compound 0.000949 µM, first compound 0.316 µM) 102% | viability, T/C (second compound 0.000949 µM, first compound 1 µM) 68.2% | viability, T/C (second compound 0.003 µM, first compound 0.00316 µM) 103% | viability, T/C (second compound 0.003 µM, first compound 0.01 µM) 106% | viability, T/C (second compound 0.003 µM, first compound 0.0316 µM) 99.8% | viability, T/C (second compound 0.003 µM, first compound 0.1 µM) 112% | viability, T/C (second compound 0.003 µM, first compound 0.316 µM) 110% | viability, T/C (second compound 0.003 µM, first compound 1 µM) 66.2% | viability, T/C (second compound 0.00949 µM, first compound 0.00316 µM) 100% | viability, T/C (second compound 0.00949 µM, first compound 0.01 µM) 99.6% | viability, T/C (second compound 0.00949 µM, first compound 0.0316 µM) 108% | viability, T/C (second compound 0.00949 µM, first compound 0.1 µM) 110% | viability, T/C (second compound 0.00949 µM, first compound 0.316 µM) 107% | viability, T/C (second compound 0.00949 µM, first compound 1 µM) 80% | viability, T/C (second compound 0.03 µM, first compound 0.00316 µM) 109% | viability, T/C (second compound 0.03 µM, first compound 0.01 µM) 105% | viability, T/C (second compound 0.03 µM, first compound 0.0316 µM) 100% | viability, T/C (second compound 0.03 µM, first compound 0.1 µM) 110% | viability, T/C (second compound 0.03 µM, first compound 0.316 µM) 104% | viability, T/C (second compound 0.03 µM, first compound 1 µM) 62.7% | viability, T/C (second compound 0.0949 µM, first compound 0.00316 µM) 105% | viability, T/C (second compound 0.0949 µM, first compound 0.01 µM) 110% | viability, T/C (second compound 0.0949 µM, first compound 0.0316 µM) 111% | viability, T/C (second compound 0.0949 µM, first compound 0.1 µM) 112% | viability, T/C (second compound 0.0949 µM, first compound 0.316 µM) 103% | viability, T/C (second compound 0.0949 µM, first compound 1 µM) 66.9% | viability, T/C (second compound 0.3 µM, first compound 0.00316 µM) 97.1% | viability, T/C (second compound 0.3 µM, first compound 0.01 µM) 104% | viability, T/C (second compound 0.3 µM, first compound 0.0316 µM) 95.9% | viability, T/C (second compound 0.3 µM, first compound 0.1 µM) 89.9% | viability, T/C (second compound 0.3 µM, first compound 0.316 µM) 97.2% | viability, T/C (second compound 0.3 µM, first compound 1 µM) 59%

CC1(O)CCCC1n1c(=O)c(C(F)F)cc2cnc(NC3CCN(S(C)(=O)=O)CC3)nc21 (centres undefined) + C=CC(=O)N1CCN(c2nc(OCC3CCCN3C)nc3c(F)c(-c4nc(N)cc(C)c4C(F)(F)F)c(Cl)cc23)C(C)C1
1.13 µM: IC50 (second compound 0.1 µM)
0.295 µM: IC50 (second compound 0.00316 µM)
1.18 µM: IC50 (second compound 1 µM)
1.1 µM: IC50 (second compound 0.0316 µM)
active: viability, T/C (second compound 0.1 µM, first compound 10 µM) 1.02% | viability, T/C (second compound 0.316 µM, first compound 10 µM) 1.06% | viability, T/C (second compound 1 µM, first compound 10 µM) 2.1%
1.06 µM: IC50 (second compound 0.316 µM)
1.34 µM: IC50 (second compound 0.01 µM)
inactive: viability, T/C (second compound 0.00316 µM, first compound 0.0316 µM) 115% | viability, T/C (second compound 0.00316 µM, first compound 0.1 µM) 125% | viability, T/C (second compound 0.00316 µM, first compound 0.316 µM) 45.5% | viability, T/C (second compound 0.00316 µM, first compound 1 µM) 52.3% | viability, T/C (second compound 0.00316 µM, first compound 3.16 µM) 46.1% | viability, T/C (second compound 0.00316 µM, first compound 10 µM) 3.51% | viability, T/C (second compound 0.01 µM, first compound 0.0316 µM) 124% | viability, T/C (second compound 0.01 µM, first compound 0.1 µM) 115% | viability, T/C (second compound 0.01 µM, first compound 0.316 µM) 49.8% | viability, T/C (second compound 0.01 µM, first compound 1 µM) 60.2% | viability, T/C (second compound 0.01 µM, first compound 3.16 µM) 49.4% | viability, T/C (second compound 0.01 µM, first compound 10 µM) 3.84% | viability, T/C (second compound 0.0316 µM, first compound 0.0316 µM) 113% | viability, T/C (second compound 0.0316 µM, first compound 0.1 µM) 113% | viability, T/C (second compound 0.0316 µM, first compound 0.316 µM) 50.3% | viability, T/C (second compound 0.0316 µM, first compound 1 µM) 51.6% | viability, T/C (second compound 0.0316 µM, first compound 3.16 µM) 48.7% | viability, T/C (second compound 0.0316 µM, first compound 10 µM) 1.4% | viability, T/C (second compound 0.1 µM, first compound 0.0316 µM) 111% | viability, T/C (second compound 0.1 µM, first compound 0.1 µM) 114% | viability, T/C (second compound 0.1 µM, first compound 0.316 µM) 58% | viability, T/C (second compound 0.1 µM, first compound 1 µM) 55.4% | viability, T/C (second compound 0.1 µM, first compound 3.16 µM) 39.6% | viability, T/C (second compound 0.316 µM, first compound 0.0316 µM) 117% | viability, T/C (second compound 0.316 µM, first compound 0.1 µM) 107% | viability, T/C (second compound 0.316 µM, first compound 0.316 µM) 54.8% | viability, T/C (second compound 0.316 µM, first compound 1 µM) 49% | viability, T/C (second compound 0.316 µM, first compound 3.16 µM) 44.5% | viability, T/C (second compound 1 µM, first compound 0.0316 µM) 117% | viability, T/C (second compound 1 µM, first compound 0.1 µM) 108% | viability, T/C (second compound 1 µM, first compound 0.316 µM) 58.1% | viability, T/C (second compound 1 µM, first compound 1 µM) 53.2% | viability, T/C (second compound 1 µM, first compound 3.16 µM) 46.3%

From PubChem BioAssay AID2060898 (Molecular Pharmacology Branch, DTP, NCI, 2025)
